Data on nine molecules can be found in ChEMBL document CHEMBL1132573, “Novel antitumor 2-cyanoaziridine-1-carboxamides” (J Med Chem, 1999).

The subject of the first assay is RPMI-8226. The assay is described as follows: Inhibition of cell growth in drug sensitive 8226 myeloma cell line. Format: functional, cell-based. Conditions: Homo sapiens.
On to `N#CC1CN1C(=O)Nc1cccnc1` (stereo not drawn), for which it took 12 µM to reach half-maximal inhibition (IC50).
On the same count and under the same terms, with `N#CC1CN1C(=O)Nc1ccc(Cl)cc1Cl` (stereo not drawn) the figure was 4.7 µM; with `CC(=O)c1cccc(NC(=O)N2CC2C#N)c1` (stereo not drawn), 8.7 µM.
Same read-out and setting: to `N#CC1CN1C(=O)Nc1ccc(Cl)c(Cl)c1` (stereo not drawn) belongs 1.1 µM; to `N#CC1CN1C(=O)Nc1ccc(F)cc1` (stereo not drawn), 5 µM; to `CNC(=O)N1CC1C#N` (stereo not drawn), 26 µM.
Same read-out and setting: with `N#CC1CN1C(=O)Nc1cccc2ccccc12` (stereo not drawn) the figure was 8 µM.
As for `N#CC1CN1C(=O)Nc1ccc(S(N)(=O)=O)cc1` (stereo not drawn), the IC50 (commonly the concentration needed to halve the response being measured) was > 38 µM.

A further assay concerns WiDr. The assay is described as follows: Inhibition of cell growth in drug sensitive WiDr colon cell line. The format is functional, cell-based. To be noted: Homo sapiens.
Take `N#CC1CN1C(=O)Nc1cccnc1` (stereo not drawn): the IC50 came out at 6 µM.
In the case of `N#CC1CN1C(=O)Nc1ccc(Cl)cc1Cl` (stereo not drawn), the midpoint of inhibition, the IC50, lay at 2.2 µM.
The same measure, in the same setting: to `CC(=O)c1cccc(NC(=O)N2CC2C#N)c1` (stereo not drawn) belongs 3.3 µM.
The same measure, in the same setting: to `N#CC1CN1C(=O)Nc1ccc(Cl)c(Cl)c1` (stereo not drawn) belongs 7 µM; to `N#CC1CN1C(=O)Nc1ccc(F)cc1` (stereo not drawn), 2.1 µM; to `CNC(=O)N1CC1C#N` (stereo not drawn), 21 µM.
As to `N#CC1CN1C(=O)Nc1cccc2ccccc12` (stereo not drawn), the IC50 was 2.4 µM.
For `N#CC1CN1C(=O)Nc1ccc(S(N)(=O)=O)cc1` (stereo not drawn), the IC50 is > 38 µM.

In the next assay the test system is MCF7. Description: Inhibition of cell growth in drug sensitive MCF-7 breast cell line. The format is functional, cell-based. To be noted: Homo sapiens.
For `N#CC1CN1C(N)=O` (stereo not drawn), the IC50 was > 54 µM.
On the same count and under the same terms, with `N#CC1CN1C(=O)Nc1cccnc1` (stereo not drawn) the figure was 4.2 µM.
On the same count and under the same terms, to `N#CC1CN1C(=O)Nc1ccc(Cl)cc1Cl` (stereo not drawn) belongs 0.9 µM.
Molecule `CC(=O)c1cccc(NC(=O)N2CC2C#N)c1` (stereo not drawn) yielded an IC50 of 3.6 µM.
Still for that read-out and setting: to `N#CC1CN1C(=O)Nc1ccc(Cl)c(Cl)c1` (stereo not drawn) belongs 4.6 µM; to `N#CC1CN1C(=O)Nc1ccc(F)cc1` (stereo not drawn), 1.9 µM.
Still for that read-out and setting: to `CNC(=O)N1CC1C#N` (stereo not drawn) belongs 27 µM.
On the same count and under the same terms, with `N#CC1CN1C(=O)Nc1cccc2ccccc12` (stereo not drawn) the figure was 2 µM; with `N#CC1CN1C(=O)Nc1ccc(S(N)(=O)=O)cc1` (stereo not drawn), > 15 µM.

The next assay deals with MCF7. Description: Inhibition of cell growth in (MCF7 breast) dox cell line. Format: functional, cell-based. To be noted: Homo sapiens.
For the molecule `N#CC1CN1C(N)=O` (stereo not drawn), the IC50 was > 54 µM.
The same measure, in the same setting: with `N#CC1CN1C(=O)Nc1cccnc1` (stereo not drawn) the figure was 6.6 µM; with `N#CC1CN1C(=O)Nc1ccc(Cl)cc1Cl` (stereo not drawn), 1.1 µM.
On the same count and under the same terms, with `CC(=O)c1cccc(NC(=O)N2CC2C#N)c1` (stereo not drawn) the figure was 3.2 µM; with `N#CC1CN1C(=O)Nc1ccc(Cl)c(Cl)c1` (stereo not drawn), 7.2 µM.
Turning to `N#CC1CN1C(=O)Nc1ccc(F)cc1` (stereo not drawn), the IC50 is 2.4 µM.
Same read-out and setting: to `CNC(=O)N1CC1C#N` (stereo not drawn) belongs 17 µM.
Still for that read-out and setting: to `N#CC1CN1C(=O)Nc1cccc2ccccc12` (stereo not drawn) belongs 1.7 µM.
Consider `N#CC1CN1C(=O)Nc1ccc(S(N)(=O)=O)cc1` (stereo not drawn), for which the IC50 is > 15 µM.

A further assay deals with OVCAR-3. Description: Inhibition of cell growth in (OVCAR-3) ovarian cell line. The format is functional, cell-based. Conditions: Homo sapiens.
In the case of `N#CC1CN1C(N)=O` (stereo not drawn), the IC50 was > 90 µM.
The same measure, in the same setting: with `N#CC1CN1C(=O)Nc1cccnc1` (stereo not drawn) the figure was 10 µM; with `N#CC1CN1C(=O)Nc1ccc(Cl)cc1Cl` (stereo not drawn), 35 µM.
Same read-out and setting: to `CC(=O)c1cccc(NC(=O)N2CC2C#N)c1` (stereo not drawn) belongs 10 µM.
The same measure, in the same setting: with `N#CC1CN1C(=O)Nc1ccc(Cl)c(Cl)c1` (stereo not drawn) the figure was 5.6 µM; with `N#CC1CN1C(=O)Nc1ccc(F)cc1` (stereo not drawn), 5.9 µM; with `CNC(=O)N1CC1C#N` (stereo not drawn), 14 µM.
`N#CC1CN1C(=O)Nc1cccc2ccccc12` (stereo not drawn) returned an IC50 of 5.9 µM.
The same measure, in the same setting: with `N#CC1CN1C(=O)Nc1ccc(S(N)(=O)=O)cc1` (stereo not drawn) the figure was 188 µM.

The subject of a further assay is L1210. Description: Inhibition of cell growth in drug sensitive L1210 leukemia cell line determined by MTT assay. The format is functional, cell-based. Conditions: Mus musculus. A general note: Tetrazolium assays rely on reduction of a dye to a coloured formazan, in cell work by metabolically active cells.
Regarding `N#CC1CN1C(N)=O` (stereo not drawn), the IC50 is > 90 µM.
For `N#CC1CN1C(=O)Nc1cccnc1` (stereo not drawn), the IC50 was 11 µM. This counts as double-digit micromolar.
On the same count and under the same terms, to `N#CC1CN1C(=O)Nc1ccc(Cl)cc1Cl` (stereo not drawn) belongs 207 µM.
On the same count and under the same terms, with `CC(=O)c1cccc(NC(=O)N2CC2C#N)c1` (stereo not drawn) the figure was 9.6 µM; with `N#CC1CN1C(=O)Nc1ccc(Cl)c(Cl)c1` (stereo not drawn), 2.6 µM; with `N#CC1CN1C(=O)Nc1ccc(F)cc1` (stereo not drawn), 7.3 µM.
The molecule `CNC(=O)N1CC1C#N` (stereo not drawn) came in with an IC50 of 8.7 µM.
Molecule `N#CC1CN1C(=O)Nc1cccc2ccccc12` (stereo not drawn) registered a concentration for half-maximal inhibition (IC50) of 7.2 µM.
On the same count and under the same terms, with `N#CC1CN1C(=O)Nc1ccc(S(N)(=O)=O)cc1` (stereo not drawn) the figure was > 38 µM.

Another assay deals with A549. Description: Inhibition of cell growth in (A-549) lung cell line. The format is functional, cell-based. Conditions: Homo sapiens.
Molecule `N#CC1CN1C(=O)Nc1cccnc1` (stereo not drawn) registered an IC50 of 16 µM.
Still for that read-out and setting: to `N#CC1CN1C(=O)Nc1ccc(Cl)cc1Cl` (stereo not drawn) belongs 2.5 µM.
Same read-out and setting: with `CC(=O)c1cccc(NC(=O)N2CC2C#N)c1` (stereo not drawn) the figure was 5.6 µM; with `N#CC1CN1C(=O)Nc1ccc(Cl)c(Cl)c1` (stereo not drawn), 7.5 µM.
Still for that read-out and setting: with `N#CC1CN1C(=O)Nc1ccc(F)cc1` (stereo not drawn) the figure was 6.2 µM; with `CNC(=O)N1CC1C#N` (stereo not drawn), 22 µM; with `N#CC1CN1C(=O)Nc1cccc2ccccc12` (stereo not drawn), 2.5 µM.
Consider `N#CC1CN1C(=O)Nc1ccc(S(N)(=O)=O)cc1` (stereo not drawn), for which the IC50 is > 38 µM.

In the next assay the test system is A-375. The assay is described as follows: Inhibition of cell growth in (A375) melan cell line. Conditions: Homo sapiens. The format is functional, cell-based.
Turning to `N#CC1CN1C(N)=O` (stereo not drawn), the IC50 was > 90 µM.
On the same count and under the same terms, with `N#CC1CN1C(=O)Nc1cccnc1` (stereo not drawn) the figure was 12 µM; with `N#CC1CN1C(=O)Nc1ccc(Cl)cc1Cl` (stereo not drawn), > 39 µM.
On the same count and under the same terms, with `CC(=O)c1cccc(NC(=O)N2CC2C#N)c1` (stereo not drawn) the figure was 7.9 µM; with `N#CC1CN1C(=O)Nc1ccc(Cl)c(Cl)c1` (stereo not drawn), 5.9 µM; with `N#CC1CN1C(=O)Nc1ccc(F)cc1` (stereo not drawn), 3.4 µM.
Take `CNC(=O)N1CC1C#N` (stereo not drawn): inhibition was half-maximal at 17 µM (IC50).
Still for that read-out and setting: to `N#CC1CN1C(=O)Nc1cccc2ccccc12` (stereo not drawn) belongs 4.2 µM; to `N#CC1CN1C(=O)Nc1ccc(S(N)(=O)=O)cc1` (stereo not drawn), 188 µM.

The test system of a further assay is RPMI-8226. The assay is described as follows: Inhibition of cell growth in drug resistant 8226 myeloma cell line. The format is functional, cell-based. To be noted: Homo sapiens.
For `N#CC1CN1C(=O)Nc1cccnc1` (stereo not drawn), the IC50 worked out at 15 µM.
The same measure, in the same setting: to `N#CC1CN1C(=O)Nc1ccc(Cl)cc1Cl` (stereo not drawn) belongs 9.4 µM; to `CC(=O)c1cccc(NC(=O)N2CC2C#N)c1` (stereo not drawn), 9.6 µM; to `N#CC1CN1C(=O)Nc1ccc(Cl)c(Cl)c1` (stereo not drawn), 2.7 µM.
On the same count and under the same terms, with `N#CC1CN1C(=O)Nc1ccc(F)cc1` (stereo not drawn) the figure was 5.9 µM.
Take `CNC(=O)N1CC1C#N` (stereo not drawn): the IC50 stood at 26 µM.
The molecule `N#CC1CN1C(=O)Nc1cccc2ccccc12` (stereo not drawn) registered an IC50 of 8.9 µM. This IC50 lies about 2.9-fold lower than the previous one.
The same measure, in the same setting: to `N#CC1CN1C(=O)Nc1ccc(S(N)(=O)=O)cc1` (stereo not drawn) belongs > 38 µM.

Another assay concerns L1210. Description: Inhibition of cell growth in (L1210 leukemia) MDR cells determined by MTT assay. The format is functional, cell-based. To be noted: Mus musculus.
Turning to `N#CC1CN1C(N)=O` (stereo not drawn), the IC50 is > 90 µM.
Still for that read-out and setting: to `N#CC1CN1C(=O)Nc1cccnc1` (stereo not drawn) belongs 16 µM; to `N#CC1CN1C(=O)Nc1ccc(Cl)cc1Cl` (stereo not drawn), 33 µM.
The same measure, in the same setting: with `CC(=O)c1cccc(NC(=O)N2CC2C#N)c1` (stereo not drawn) the figure was 7.9 µM; with `N#CC1CN1C(=O)Nc1ccc(Cl)c(Cl)c1` (stereo not drawn), 7.2 µM; with `N#CC1CN1C(=O)Nc1ccc(F)cc1` (stereo not drawn), 5.9 µM.
For the molecule `CNC(=O)N1CC1C#N` (stereo not drawn), the IC50 turned out to be 21 µM. Against the preceding molecule, the IC50 is about 3.6-fold higher.
For `N#CC1CN1C(=O)Nc1cccc2ccccc12` (stereo not drawn), the IC50 was 2.5 µM.
Still for that read-out and setting: to `N#CC1CN1C(=O)Nc1ccc(S(N)(=O)=O)cc1` (stereo not drawn) belongs > 38 µM.

Another assay relates to MCF7. Description: Inhibition of cell growth in (MCF7 breast) mitox cell line. The format is functional, cell-based. To be noted: Homo sapiens.
Consider `N#CC1CN1C(N)=O` (stereo not drawn), for which the IC50 was > 54 µM.
On the same count and under the same terms, with `N#CC1CN1C(=O)Nc1cccnc1` (stereo not drawn) the figure was 5.4 µM; with `N#CC1CN1C(=O)Nc1ccc(Cl)cc1Cl` (stereo not drawn), 0.35 µM; with `CC(=O)c1cccc(NC(=O)N2CC2C#N)c1` (stereo not drawn), 3.5 µM.
Still for that read-out and setting: with `N#CC1CN1C(=O)Nc1ccc(Cl)c(Cl)c1` (stereo not drawn) the figure was 4.4 µM; with `N#CC1CN1C(=O)Nc1ccc(F)cc1` (stereo not drawn), 2.7 µM; with `CNC(=O)N1CC1C#N` (stereo not drawn), 18 µM.
The same measure, in the same setting: to `N#CC1CN1C(=O)Nc1cccc2ccccc12` (stereo not drawn) belongs 2 µM; to `N#CC1CN1C(=O)Nc1ccc(S(N)(=O)=O)cc1` (stereo not drawn), > 15 µM.

Another assay has as its system WiDr. The assay is described as follows: Inhibition of cell growth in drug resistant WiDr colon cell line. Conditions: Homo sapiens. The format is functional, cell-based.
`N#CC1CN1C(=O)Nc1cccnc1` (stereo not drawn) showed an IC50 of 18 µM.
On the same count and under the same terms, with `N#CC1CN1C(=O)Nc1ccc(Cl)cc1Cl` (stereo not drawn) the figure was 1.9 µM; with `CC(=O)c1cccc(NC(=O)N2CC2C#N)c1` (stereo not drawn), 9 µM; with `N#CC1CN1C(=O)Nc1ccc(Cl)c(Cl)c1` (stereo not drawn), 14 µM.
The same measure, in the same setting: to `N#CC1CN1C(=O)Nc1ccc(F)cc1` (stereo not drawn) belongs 9 µM; to `CNC(=O)N1CC1C#N` (stereo not drawn), 23 µM.
The same measure, in the same setting: with `N#CC1CN1C(=O)Nc1cccc2ccccc12` (stereo not drawn) the figure was 2.5 µM.
Turning to `N#CC1CN1C(=O)Nc1ccc(S(N)(=O)=O)cc1` (stereo not drawn), the IC50 was > 38 µM.
